Assay results taken from patent publication US4407795A, “Inclusion compound of p-hexadecylamino benzoic acid in cyclodextrin and method of use” (American Cyanamid Company, priority 1981, dated 1983).
“Also recorded” adds a separate entry of the source.

Tests used:
[1] = in vivo; cited from earlier work
[2] = cited from earlier work
[3] = Luminal narrowing and myocardial blood flow; format: in vivo
Serum lipoproteins = format: in vivo
[4] = test system: fatty acyl-CoA: cholesterol acyl transferase (ACAT); assay: Inhibition of arterial cholesterol-esterifying enzyme; format: biochemical; settings: in words
[5] = Effects on arterial wall / atherosclerotic plaque; format: in vivo
[6] = in words; cited from earlier work
[7] = mainly as glucose formed by enzymatic hydrolysis; cited from earlier work
[8] = rat; cited from earlier work

CCOC(=O)C(C)(C)Oc1ccc(Cl)cc1 [clofibrate]
lowering blood lipids [1]: effective to varying degrees in lowering blood lipids

N[C@H](Cc1cc(I)c(Oc2cc(I)c(O)c(I)c2)c(I)c1)C(=O)O [D-thyroxine]
lowering blood lipids [1]: effective to varying degrees in lowering blood lipids

O=C(O)c1ccccc1O [salicylic acid]
bioavailability in man as β-cyclodextrin inclusion compound [2]: increased bioavailability

CCCCCCCCCCCCCCCCNc1ccc(C(=O)[O-])cc1.[Na+] [p-hexadecylamino benzoic acid sodium salt]
reduction in the luminal narrowing ([3]; 4 major coronary arteries): 2 fold | luminal narrowing in major peripheral arteries ([3]; major peripheral arteries): Reductions in luminal narrowing are seen in major peripheral arteries as well | myocardial blood flow ([3]; non-stressed and stressed heart): increases in myocardial blood flow in the non-stressed and the stressed heart | high-density lipoprotein in the serum, increase (Serum lipoproteins; in vivo): 2 fold | HDL concentrations (Serum lipoproteins; in words): elevates HDL concentrations | very low-density lipoproteins (Serum lipoproteins; in words): antiatherogenic decrease in the atherogenic very low-density lipoproteins | inhibition of arterial cholesterol-esterifying enzyme (ACAT) [4]: inhibited by this compound | area and thickness of the plaque (incidence and severity of plaque formation) ([5]; arterial wall): decrease of both the area and the thickness of the plaque | deposition of collagen and elastin ([5]; arterial wall): reduction of deposition of connective-tissue collagen and elastic-fiber elastin | formation of the extracellular matrix and trapping of very low-density lipoproteins ([5]; arterial wall): lowering of the formation of the extracellular matrix and its trapping of very low-density lipoproteins | immobilization of cholesterol in the form of ester ([5]; arterial wall): decreased immobilization of cholesterol in the form of ester | smooth-muscle cell proliferation ([5]; arterial wall): decreased smooth-muscle cell proliferation | calcium deposition ([5]; arterial wall / plaque, sodium salt): reduced calcium deposition; also recorded: minimizes the calcium deposition in the plaque | progression of atherosclerosis ([5]; in words): inhibit the progression of atherosclerosis

OC[C@H]1O[C@@H]2O[C@H]3[C@H](O)[C@@H](O)[C@@H](O[C@H]4[C@H](O)[C@@H](O)[C@@H](O[C@H]5[C@H](O)[C@@H](O)[C@@H](O[C@H]6[C@H](O)[C@@H](O)[C@@H](O[C@H]7[C@H](O)[C@@H](O)[C@@H](O[C@H]8[C@H](O)[C@@H](O)[C@@H](O[C@H]1[C@H](O)[C@H]2O)O[C@@H]8CO)O[C@@H]7CO)O[C@@H]6CO)O[C@@H]5CO)O[C@@H]4CO)O[C@@H]3CO [β-cyclodextrin]
toxicity [6]: lack of toxicity | absorbed by man upon oral administration [7]: less than 0.01%

CCCCCCCCCCCCCCCCCC(=O)O [stearic acid]
bioavailability with β-cyclodextrin [8]: enhance the bioavailability

COc1ccc2c(c1)c(CC(=O)O)c(C)n2C(=O)c1ccc(Cl)cc1 [Indomethacin]
bioavailability with β-cyclodextrin [8]: enhance the bioavailability

O=C(O)c1cccnc1 [nicotinic acid]
lowering blood lipids [1]: effective to varying degrees in lowering blood lipids
